Measurements published in patent US20060128014A1, “Compositions and methods for culturing stem cells” (priority 2002, published 2006).
Where no end group is shown, it is not given here.

Key:
[1] = tested on: hippocampal CA1 region; conditions: cited from earlier work; for delayed neuronal death in the hippocampal CA1 region: transient forebrain ischemia
[2] = tested on: human neural stem cells; experiment: Neurosphere formation of human neural stem cells; assay type: cell-based
Description: Culture of human neural stem cells: Human neural stem cells were isolated and cultured under adherent conditions according to the protocol described in Palmer et al., 2001, Nature 411(6833):42-43, modified to exclude the additives PDGF and cystatinC and using B27 supplement instead of BIT. The cells were cultured for 10-16 passages in DMEM/F12 with B27-supplement and EGF (20 ng/ml) and FGF-2 (20 ng/ml). Cells were detached with Trypsin/EDTA, rinsed three times and then replated in suspension culture plastic wells in DMEM/F12 and B27-supplement for 24 h without growth factors. Thereafter factors (Vanadate, EGF or EGF+FGF2) were added for one day.

[3] = cited from earlier work
[4] = tested on: adult derived neural stem cells; experiment: Proliferation of adult derived neural stem cells by increased cAMP (unpublished results); assay type: cell-based; conditions: increased levels of cAMP
[5] = tested on: adult neural stem cells; experiment: Intracellular ATP assay (ViaLight kit) on cultured adult neural stem cells; assay type: cell-based, mice; conditions: for maximal amplitudes of responses: vanadate and EGF each added alone, compared
Description: Neurosphere cultures: The anterior lateral wall of the lateral ventricle of 5-6 week old mice was enzymatically dissociated in 0.8 mg/ml hyaluronidase and 0.5 mg/ml trypsin in DMEM containing 4.5 mg/ml glucose and 80 units/ml DNase at 37° C. for 20 min. The cells were gently triturated and mixed with three volumes of Neurosphere medium (DMEM/F12, B27 supplement, 125 mM HEPES pH7.4) containing 20 ng/ml EGF (unless otherwise stated), 100 units/ml penicillin and 100 _g/ml streptomycin. After passing through a 70 _m strainer, the cells were pelleted at 160×g for 5 min. The supernatant was subsequently removed and the cells resuspended in Neurosphere medium supplemented as above, plated out in culture dishes and incubated at 37° C. Neurospheres were ready to be split approximately 7 days after plating.
To split the neurospheres, they were collected by centrifugation at 160×g for 5 min. The conditioned supernatant (conditioned medium) was removed and saved. The neurospheres were resuspended in 0.5 ml Trypsin/EDTA in HBSS (1×), incubated at 37° C. for 2 min and triturated gently to aid dissociation. Following a further 3 min incubation at 37° C. and trituration, 3 volumes of ice cold NSPH-media-EGF were added to stop further trypsin activity. The cells were pelleted at 220×g for 4 min, and resuspended in a 1:1 mixture of fresh Neurosphere medium and conditioned medium. EGF was supplemented to 20 ng/ml and the culture plated out and incubated at 37° C.
Where stated, a minimal Neurosphere medium was used containing BIT supplement in place of B27 supplement.
Neurosphere assays: NSC, cultured as described above, from passage 2 were seeded in DMEM/F12 supplemented with B27 into a 96-well plate as single cells (10000 cells/well), to which agents were added at the concentrations indicated.
After 3 days of treatment, intracelluar ATP was measured using the ViaLight kit (BioWhittaker) according to the manufacturer's instructions.

[6] = experimental animals; cited from earlier work
[7] = tested on: neural stem cells; experiment: Sphere formation in presence of vanadate and in combination with PACAP; assay type: cell-based; conditions: DMEM/F12 with B27, after 7 days
Description: Cells were isolated as described (see section 5.5.1). Aliquots of 1 ml cell suspension per well equivalent to one brain per well were plated in DMEM/F12 supplemented with B27.
10 uM Vanadate or 10 uM Vanadate +300 nM PACAP was added to the cultures. Fresh substances were added every second day. After 7 days sphereformation was observed.

[Na+].[Na+].[Na+].[O]=[V]([O-])([O-])[O-] [sodium orthovanadate]
delayed neuronal death in the hippocampal CA1 region [1]: rescued cells from delayed neuronal death

FGF-2: protein growth factor
neurosphere formation with growth factors ([2]; growth factors added for one day, FIG. 8b and 8c): reduced neurosphere formation

[Na+].[O]=[V](=[O])[O-] [NaVO3]
most common adverse effect ([3]; oral): mild gastrointestinal intolerance

COc1ccc(C2CNC(=O)C2)cc1OC1CCCC1 (centres unmarked) [rolipram]
proliferation [4]: trigger proliferation

EGF: epidermal growth factor, protein growth factor
maximal amplitudes of responses ([5]; FIGS. 2 and 3): equal in size

[O]=[V]([O-])([O-])[O-] [vanadate]
blood glucose levels [6]: reduces blood glucose levels
sphere formation ([2]; 10 uM, after 1 d, DMEM/F12 and B27-supplement, FIG. 8a): formed numerous spheres
adherence of the spheres ([2]; 10 uM, after 1 d, FIG. 8a): virtually all spheres were free floating
sphere formation ([7]; 10 uM Vanadate + 300 nM PACAP, FIG. 6b): Sphereforming capacity was noted
sphere formation ([7]; 10 uM Vanadate alone, FIG. 6a): Sphereforming capacity was noted
neuroprotection ([1]; experimental animals): neuroprotective
tolerability in humans ([3]; humans): tolerated
effect in patients suffering from diabetes ([3]; patients suffering from diabetes): positive results
proliferative effect (intracellular ATP levels) ([5]; added alone, growth media supplemented with BIT or B27, 3 days of treatment, FIG. 1): concentration dependent proliferative effect
ATP-levels with EGF and increasing concentrations of vanadate ([5]; in addition to EGF (3 nM), FIG. 7): not significantly altered
proliferative effect in combination with EGF ([5]; in the presence of EGF, supplement BIT or B27, FIGS. 2 and 3): additive
proliferative effect in combination with PACAP ([5]; in the presence of PACAP, supplement BIT or B27, FIGS. 4, 5): additive
maximal amplitudes of responses ([5]; FIGS. 2 and 3): equal in size

IGF-1: insulinlike growth factor-1
delayed neuronal death in the hippocampal CA1 region [1]: rescued cells from delayed neuronal death

PACAP: neuropeptide acting on cyclase activating GPCRs (HSDGIFTDSYSRYRKQMAVKKYLAAVLGKRYKQRVKNK; ends and bridges not checked; UniProt P18509 132-169, looked up)
proliferation [4]: trigger proliferation
